# Measurements reported in patent publication US9051418B2, “Glucose-PEG conjugates for reducing glucose transport into a cell” (Agency for Science, Technology and Research, priority 2008, dated 2015).
# Entries after “also recorded” stand apart in the source; their conditions may differ.
# Legend:
# [1] = system: SkBr3 (human breast cancer) cell line; conditions: SkBr3, concentration of 4 mM; cited from earlier work
# tumor = conditions: animal studies, supplemental 2-DG; cited from earlier work
# DU145 = conditions: DU145, 200 μM, 3 days
# [2] = system: different cancer cell lines; conditions: 200 μM, MTT, Table 1
# Description: MTT assay was carried out to monitor the viability of the cells. Values obtained for the cells without any treatments were kept as 100%.
# Different cancer cell lines, MCF-7 (breast cancer), H1299 (lung cancer), HepG2 (liver cancer), DU145 (prostate cancer), Caco2 (colon cancer) and AGS (gastric cancer) were obtained from American Type Culture Collection (ATCC). Normal breast epithelial cell line (MCF-10A) was used for comparison. The cells were maintained in the growth medium as described by ATCC. Approximately 10,000 cells were seeded onto a 96-well plate. Modified glucose compounds were added to the cells after 24 h of seeding. The cells were further cultured in the presence of the modified glucose compounds for up to 7 days. The medium was changed everyday along with the specified concentration of modified glucose.
# MTT assay was performed using the TACS™ MTT cell proliferation assay kit (Trevigen Inc, Md., USA). Briefly, after treatment of cells, 10 μl of MTT reagent was added and incubated at 37° C. for 4 h. The cells were lysed using detergent for 4 h at room temperature. The absorbance was measured in a standard plate reader at 570 nm.
# H1299 = conditions: H1299, 200 μM, 3 days
# Description: Human lung cancer cells (H1299) were treated for 3 days with 200 μM of modified glucose (GBrP). Control cells were prepared without treatment. Total RNA was extracted from the cells and reverse transcribed. A PCR array containing primers to identify the apoptotic pathway was used to identify the apoptosis pathway between control and treated cells in lung cancer cells.
# Gene expression analysis was carried out to understand the apoptosis pathway during the modified glucose mediated cell death.
# GLUT1 = target: T1, GLUT1 (Homo sapiens, UniProt P11166); assay: Glucose competition binding assay with GPB fluorescence; conditions: MCF-7, 200 μM GPB, glucose 10-40 mM, 30 min, 37° C.
# T1 construct: host or cells: MCF-7 human breast cancer cells
# T1 sequence (P11166 1-492): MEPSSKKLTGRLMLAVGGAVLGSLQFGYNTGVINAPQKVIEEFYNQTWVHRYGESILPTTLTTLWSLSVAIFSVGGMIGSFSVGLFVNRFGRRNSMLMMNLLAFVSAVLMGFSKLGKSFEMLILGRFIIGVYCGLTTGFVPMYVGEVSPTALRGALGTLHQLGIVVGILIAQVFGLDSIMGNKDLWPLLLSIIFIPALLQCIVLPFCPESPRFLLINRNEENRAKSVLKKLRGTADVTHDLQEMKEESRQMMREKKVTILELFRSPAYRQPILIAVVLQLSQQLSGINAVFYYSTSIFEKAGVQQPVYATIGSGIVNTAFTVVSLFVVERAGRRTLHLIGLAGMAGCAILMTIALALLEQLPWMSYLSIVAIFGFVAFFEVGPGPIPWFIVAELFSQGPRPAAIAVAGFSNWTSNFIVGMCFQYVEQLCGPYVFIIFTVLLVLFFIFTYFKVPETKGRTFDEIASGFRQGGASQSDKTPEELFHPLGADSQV
# Description: FIG. 6: Competition assay. […] The cells were incubated for 30 min at 37° C. The cells were washed with PBS, and the total intensity was measured using a plate reader.
# FIG. 10: Binding of GBP to GLUT1. […] After 30 minutes the fluorescence intensity was measured using a plate reader.
# The medium was removed and the cells were washed briefly with PBS twice. The fluorescence intensity was measured with an excitation of 488 nm and an emission of 522 nm. The fluorescence intensity was normalized by that of the control cells.
# A glucose competition assay was carried out to confirm that the modified glucose-PEG is binding to the GLUT1 receptors. Increasing concentrations of un-modified glucose were used. […] After 30 minutes the fluorescence intensity was measured using a plate reader.
# MCF-7 cells [3] = assay: Fluorescence imaging of cells labeled with GPB; type: cell-based, human; conditions: MCF-7, live fluorescence imaging after incubation and PBS wash
# Description: They were washed with PBS before fluorescence imaging. Scale bar=500 μm. The MCF-7 cells were seeded on a 6-well plate at least 24 h prior to imaging. […] The cells were washed with PBS (without calcium and magnesium) thrice. Live imaging was performed with fluorescence microscopy. Metamorph (Molecular Devices, USA) and Image J (freeware from NIH, USA) were used for image capturing and processing.
# MCF-7 cells [4] = assay: MTT cell viability assay, MCF-7 cells cultured 7 days with modified glucose; conditions: MCF-7, different concentrations
# Description: MCF-7 cells were seeded onto 96-well plates at least 24 h prior to the experiment. […] MTT assay was performed to assess the cell viability. […] Cell viability was normalized with that of the control cells. […] The cells were treated as described in FIG. 3, followed by the MTT assay. […] MTT assay was carried out to monitor the viability of the cells. Values obtained for the cells without any treatments were kept as 100%. Different cancer cell lines, MCF-7 (breast cancer), H1299 (lung cancer), HepG2 (liver cancer), DU145 (prostate cancer), Caco2 (colon cancer) and AGS (gastric cancer) were obtained from American Type Culture Collection (ATCC). Normal breast epithelial cell line (MCF-10A) was used for comparison. The cells were maintained in the growth medium as described by ATCC. Approximately 10,000 cells were seeded onto a 96-well plate. Modified glucose compounds were added to the cells after 24 h of seeding. The cells were further cultured in the presence of the modified glucose compounds for up to 7 days. The medium was changed everyday along with the specified concentration of modified glucose. […] MTT assay was performed using the TACS™ MTT cell proliferation assay kit (Trevigen Inc, Md., USA). Briefly, after treatment of cells, 10 μl of MTT reagent was added and incubated at 37° C. for 4 h. […] The absorbance was measured in a standard plate reader at 570 nm.
compound,measurement,setting,value
"O=CC[C@@H](O)[C@H](O)[C@H](O)CO [2-DG, 2-deoxyglucose]",apoptotic cells,[1],50%
same,tumor growth,tumor,growth of the tumor was inhibited
glucose-conjugated branched PEG [GBrP],"apoptosis pathway gene expression, treated vs control",DU145,AKT1 and ABL1 were down regulated while APAF1 and TP53BP were upregulated
same,inhibition of viability of various different cancer cell lines,[2],significantly inhibit the viability
same,"apoptosis pathway gene expression, treated vs control",H1299,AKT1 and ABL1 were down regulated while APAF1 and TP53BP were upregulated
Glucose-PEG-BODIPY [GPB],competition of un-modified glucose with GPB binding (fluorescence intensity),GLUT1,glucose competed with the GPB in binding to the GLUTs; also recorded: intensity of the fluorescence decreases with the increase in un-modified glucose
same,localization of fluorescence in cells,MCF-7 cells [3],localized on the plasma membrane of the cells
same,dose-dependent effect on cell viability,MCF-7 cells [4],gradual dose-dependent decrease in the cell viability
